# Experiments:
# [1] = Estimation of the oral bioavailability of prodrugs of phosphonic acids (urinary recovery); type: in vivo, rat; details: for oral bioavailability: rat, estimated from urinary recovery vs intravenous parent
# Procedure: Prodrugs were dissolved in 10% ethanol/90% polyethylene glycol (mw 400) and administered by oral gavage at doses of approximately 20 or 40 mg/kg parent compound equivalents to 6-hour fasted, Sprague Dawley rats (220-240 g). The rats were subsequently placed in metabolic cages and urine was collected for 24 hours. The quantity of parent compound excreted into urine was determined by HPLC analysis. An ODS column eluted with a gradient from potassium phosphate buffer, pH 5.5 to acetonitrile was employed for these measurements. Detection was at 310-325 nm. […] Parent compounds were typically dissolved in dimethyl sulfoxide, and administered via the tail vein in animals that were briefly anesthetized with halothane.
# [2] = system: Zucker Diabetic Fatty rats; test: Inhibition of gluconeogenesis (14C-bicarbonate incorporation into glucose) in Zucker Diabetic Fatty rats; type: in vivo, rat; details: 50 mg/kg intraperitoneal
# Procedure: Blood samples (0.6 mL) were obtained by cardiac puncture 10 and 20 minutes post tracer injection. Blood (0.5 mL) was diluted into 6 mL deionized water and protein precipitated by addition of 1 mL zinc sulfate (0.3 N) and 1 mL barium hydroxide (0.3 N). The mixture was centrifuged (20 minutes, 1000×g) and 5 mL of the resulting supernatant was then combined with 1 g of a mixed bed ion exchange resin (1 part AG 50W-X8, 100-200 mesh, hydrogen form and 2 parts of AG 1-X8, 100-200 mesh, acetate form) to separate ^14C-bicarbonate from ^14C-glucose. The slurry was shaken at room temperature for four hours and then allowed to settle. An aliquot of the supernatant (0.5 mL) was then counted in 5 mL scintillation cocktail.
# [3] = system: rat hepatocytes; test: Gluconeogenesis from dihydroxyacetone in rat hepatocytes: glucose production and fructose 1,6-bisphosphate accumulation; type: cell-based
# Procedure: Isolated rat hepatocytes were prepared as described in Example D and incubated under the identical conditions described except that lactate/pyruvate was replaced by 10 mM dihydroxyacetone, a substrate which feeds into the gluconeogenic pathway at a step just prior to FBPase. Reactions were terminated by removing an aliquot (250 μL) of cell suspension and spinning it through a layer of oil (0.8 mL silicone/mineral oil, 4/1) into a 10% perchloric acid layer (100 μL). […] After thorough mixing and centrifugation, the supernatant was analyzed for glucose content as described in Example D, and also for fructose-1,6-bisphosphate. Fructose-1,6-bisphosphate was assayed spectrophotometrically by coupling its enzymatic conversion to glycerol 3-phosphate to the oxidation of NADH, which was monitored at 340 nm. Reaction mixtures (1 mL) consisted of 200 mM Tris-HCl, pH 7.4, 0.3 mM NADH, 2 units/mL glycerol 3-phosphate dehydrogenase, 2 units/mL triosephosphate isomerase, and 50-100 μl cell extract. After a 30 minute preincubation at 37° C., 1 unit/mL of aldolase was added and the change in absorbance measured until a stable value was obtained. 2 moles of NADH are oxidized in this reaction per mole of fructose-1,6-bisphosphate present in the cell extract.
# [4] = system: Zucker Diabetic Fatty rats; test: Blood glucose lowering in Zucker Diabetic Fatty rats; type: in vivo, rat; details: 50 mg/kg intraperitoneal, 2 hours post dose, 24-hour fasted
# Procedure: Zucker Diabetic Fatty rats purchased at 7 weeks of age were used at age 16 weeks in the 24-hour fasted state. The rats were purchased from Genetics Models Inc. and fed the recommended Purina 5008 diet (6.5% fat). Their fasting hyperglycemia at 24 hours ranged from 150 mg/dL to 310 mg/dL blood glucose.
# The stock solution was made up at […] in deionized water and adjusted to neutrality by dropwise, addition of 5 N NaOH. 5 control animals were dosed with saline. Blood glucose was measured at the time of dosing and 2 hours post dose as described in Example F.
# [5] = molecular target: T1, Adenylate Kinase (rabbit muscle) (Oryctolagus cuniculus, UniProt P00569); test: AMP site/enzyme selectivity: adenylate kinase; type: biochemical; details: selectivity table; read-out: Adenylate Kinase (inh.)
# T1 construct: purchased Sigma
# T1 sequence (P00569 1-194): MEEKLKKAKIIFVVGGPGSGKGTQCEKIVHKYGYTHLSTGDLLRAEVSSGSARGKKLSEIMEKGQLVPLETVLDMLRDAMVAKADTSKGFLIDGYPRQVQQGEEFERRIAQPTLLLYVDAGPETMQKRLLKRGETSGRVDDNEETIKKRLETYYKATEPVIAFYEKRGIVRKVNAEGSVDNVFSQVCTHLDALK
# [6] = system: 18 hours fasted Sprague-Dawley rats; test: Blood glucose and liver fructose-1,6-bisphosphate accumulation in fasted rats; type: in vivo, rat; details: 20 mgs/kg intraperitoneally
# [7] = system: rat hepatocytes; test: Inhibition of gluconeogenesis (glucose production from lactate/pyruvate) in rat hepatocytes; type: cell-based; details: for IC50: from lactate/pyruvate, isolated rat hepatocytes
# Procedure: Hepatocytes were prepared from overnight fasted Sprague-Dawley rats (250-300 g) according to the procedure of Berry and Friend (Berry, M. N., Friend, D. S., J. Cell. Biol. 1969, 43, 506-520) as modified by Groen (Groen, […]., Eur. J. Biochem. 1982, 122, 87-93). […] Incubations were carried out in a 95% oxygen, 5% carbon dioxide atmosphere in closed, 50-mL Falcon tubes submerged in a rapidly shaking water bath (37° C.). After 1 hour, an aliquot (0.25 mL) was removed, transferred to an Eppendorf tube and centrifuged. 50 μl of supernatant was then assayed for glucose content using a Sigma Glucose Oxidase kit as per the manufacturer's instructions.
# [8] = Analysis of drug levels in plasma and liver of rats; type: in vivo, rat; details: 20 mgs/kg intraperitoneally, one hour post injection
# [9] = molecular target: T2, allosteric AMP binding site of hlFBPase (Homo sapiens, UniProt P09467); test: AMP site binding: displacement of 3H-AMP from hlFBPase; details: for EC50: 3H-AMP, hlFBPase, read-out: ED50 for AMP displacement; for displacement of AMP from hlFBPase (FIG. 3): result in words
# T2 construct: made in house; host or cells: E. coli BL21
# T2 sequence (P09467 2-338 limits assumed): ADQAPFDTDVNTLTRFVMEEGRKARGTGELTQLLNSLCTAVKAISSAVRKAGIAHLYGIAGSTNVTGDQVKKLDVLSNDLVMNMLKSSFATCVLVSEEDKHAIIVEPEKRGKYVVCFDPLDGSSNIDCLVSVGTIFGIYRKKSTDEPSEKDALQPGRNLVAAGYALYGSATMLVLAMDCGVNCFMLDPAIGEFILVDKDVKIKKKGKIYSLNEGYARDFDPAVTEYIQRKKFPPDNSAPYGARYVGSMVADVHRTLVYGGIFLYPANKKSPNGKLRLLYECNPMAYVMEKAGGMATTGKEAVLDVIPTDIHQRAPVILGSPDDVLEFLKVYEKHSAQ
# Procedure: To determine whether compounds bind to the allosteric AMP binding site of hlFBPase, the enzyme was incubated with radiolabeled AMP in the presence of a range of test compound concentrations. The reaction mixtures consisted of […] ^3H-AMP (54 mCi/mmol) and […] test compound in 25 mM Tris-HCl, pH 7.4, 100 mM KCl and 1 mM MgCl2. 1.45 mg of homogeneous FBPase (±1 nmole) was added last. After a 1 minute incubation, AMP bound to FBPase was separated from unbound AMP by means of a centrifugal ultrafiltration unit (“Ultrafree-MC”, Millipore) used according to the instructions of the manufacturer. The radioactivity in aliquots (100 μl) of the upper compartment of the unit (the retentate, which contains enzyme and label) and the lower compartment (the filtrate, which contains unbound label) were quantified using a Beckman liquid scintillation counter. The amount of AMP bound to the enzyme was estimated by comparing the counts in the filtrate (the unbound label) to the total counts in the retentate.
# [10] = molecular target: T3, human liver FBPase (Homo sapiens, UniProt P09467); test: Inhibition of human liver FBPase (coupled spectrophotometric assay); type: biochemical
# T3 construct: made in house; host or cells: E. coli BL21
# T3 sequence (P09467 2-338 limits assumed): T2 sequence (P09467 2-338 limits assumed)
# [11] = molecular target: T4, rat liver FBPase (Rattus norvegicus, UniProt P19112); test: In vitro inhibition of rat liver FBPase; type: biochemical
# T4 construct: made in house; host or cells: E. coli BL21
# T4 sequence (P19112 2-363 limits assumed): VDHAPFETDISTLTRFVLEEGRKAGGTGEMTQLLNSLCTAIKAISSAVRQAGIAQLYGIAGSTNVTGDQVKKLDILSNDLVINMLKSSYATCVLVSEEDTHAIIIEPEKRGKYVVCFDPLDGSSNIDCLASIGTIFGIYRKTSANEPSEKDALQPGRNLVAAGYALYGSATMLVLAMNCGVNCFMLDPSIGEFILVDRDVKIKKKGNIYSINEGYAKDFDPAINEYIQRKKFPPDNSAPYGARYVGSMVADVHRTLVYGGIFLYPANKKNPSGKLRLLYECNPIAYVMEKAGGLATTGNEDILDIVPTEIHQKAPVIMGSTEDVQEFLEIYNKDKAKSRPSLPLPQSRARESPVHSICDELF
# Procedure: (§1) Mouse liver FBPase was obtained by homogenizing freshly isolated mouse liver in 100 mM Tris-HCl buffer, pH 7.4, containing 1 mM EGTA, and 10% glycerol. […] This fraction was redissolved in the homogenization buffer and desalted on a PD-10 gel filtration column (Biorad) eluted with same. This partially purified fraction was used for enzyme assays. Both rat liver and mouse liver FBPase were assayed as described for human liver FBPase.
# [12] = molecular target: T5, mouse liver FBPase (Mus musculus, UniProt Q9QXD6); test: In vitro inhibition of mouse liver FBPase; type: biochemical
# T5 construct: This partially purified fraction was used for enzyme assays; from tissue; host or cells: mouse liver
# T5 sequence (Q9QXD6 2-338 limits assumed): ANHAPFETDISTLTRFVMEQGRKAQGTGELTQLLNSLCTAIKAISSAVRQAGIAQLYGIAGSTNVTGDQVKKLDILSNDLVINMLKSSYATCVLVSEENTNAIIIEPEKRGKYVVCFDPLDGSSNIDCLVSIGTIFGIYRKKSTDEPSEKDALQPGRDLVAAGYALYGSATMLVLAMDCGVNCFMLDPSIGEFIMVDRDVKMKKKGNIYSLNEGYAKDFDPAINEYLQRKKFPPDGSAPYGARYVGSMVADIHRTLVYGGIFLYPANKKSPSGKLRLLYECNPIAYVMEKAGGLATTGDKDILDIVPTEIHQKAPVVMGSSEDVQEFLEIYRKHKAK
# Procedure: as §1
# [13] = system: rat hepatocytes; details: 10 μM prodrug, within 10 minutes
# Procedure: Rat hepatocytes were prepared and incubated as in Example D, except that the test compound, 16.4, was added to yield a final concentration of 10 μM. Aliquots of the cell suspension were taken at 0, 5, 10, 20, 30, 45, and 60 minutes after drug exposure.
# [14] = system: 18 hours fasted Sprague Dawley rats; test: Blood glucose lowering in fasted rats; type: in vivo, rat; details: 35, 45, and 60 mg/kg intraperitoneally, result in words
# Procedure: The vehicle used for drug administration was dimethylsulfoxide. Blood samples were obtained from the tail vein of conscious animals just prior to injection and then at half-hourly intervals. Blood glucose was measured using a HemoCue Inc. glucose analyzer according to the instructions of the manufacturer.
structure (smiles),measurement,setting,value
"CC(C)(C)Cn1c(-c2ccc(P(=O)(O)O)o2)nc2c(N)ncnc21 [Compound 2.7, N^9-neopentyl-8-(2-(5-phosphono)furanyl)adenine]",intravenous dose recovered in urine,"[1]; intravenous, approximately 10 mg/kg, 24 hours urine",76.8%
same,reduction of incorporation of 14C-bicarbonate into glucose,[2],75%
same,IC50,"[3]; Hepatocyte, 10 mM dihydroxyacetone, rat hepatocytes",~5 µM
same,"accumulation of fructose-1,6-bisphosphate in hepatocytes (FIG. 4B)","[3]; dihydroxyacetone, result in words","dose-dependent accumulation of fructose-1,6-bisphosphate"
same,"blood glucose lowered, average",[4],~20%
same,IC50,[5],> 500 µM
same,"elevation of fructose-1,6-bisphosphate levels in liver",[6]; one hour post injection,10 fold
same,blood glucose after treatment,"[6]; within one hour, lowered from 82±3",28 ± 9.9 mg/dL
same,IC50,[7]; Hepatocyte,4.5 µM
same,drug level in liver,[8],51.3 ± 10 nmol/g
same,concentration at 1 h,"[8]; Sprague-Dawley, rat, plasma, ip, 20 mg/kg, read-out: drug level in plasma",38.5 ± 7 µM
"NC(=O)c1ncn([C@@H]2O[C@H](COP(=O)(O)O)[C@@H](O)[C@H]2O)c1N [ZMP, aminoimidazolecarboxamideriboside monophosphate, reference compound]",EC50,[9],250 µM
same,displacement of AMP from hlFBPase (FIG. 3),[9],displaced AMP from hlFBPase in a dose-dependent manner
same,IC50,[10],12 µM
"Nc1ncnc2c1nc(-c1ccc(P(=O)(O)O)o1)n2CCC1CCCCC1 [Compound 2.2, N^9-(2-cyclohexylethyl)-8-(2-(5-phosphono)furanyl)adenine]",IC50,[11],> 20 µM
same,EC50,[9],35 µM
same,displacement of AMP from hlFBPase (FIG. 3),[9],displaced AMP from hlFBPase in a dose-dependent manner
same,IC50,[12],> 20 µM
same,IC50,[7]; Hepatocyte,90 µM
"CC(C)C(=O)OCOP(=O)(OCOC(=O)C(C)C)c1ccc(-c2nc3c(N)ncnc3n2CC(C)(C)C)o1 [Compound 16.4, 6-Amino-9-neopentyl-8-(2-(5-diisobutyrylmethylphosphono)furanyl)-purine]",oral dose recovered in urine (as parent compound),"[1]; oral, approximately 20 mg/kg, 24 hours urine",6.2%
same,oral bioavailability,[1],approximately 8%
same,intracellular concentration of compound 2.7,[13],approximately 80 nmoles/g
same,IC50,[7],3 µM
same,glucose production in rat hepatocytes (FIG. 11B),[7]; result in words,inhibited glucose production
same,blood glucose lowering (FIG. 6),[14],profound glucose lowering
"CC(C)(C)Cn1c(-c2ccc(P(=O)(OCOC(=O)C(C)(C)C)OCOC(=O)C(C)(C)C)o2)nc2c(N)ncnc21 [Compound 16.5, 6-Amino-9-neopentyl-8-(2-(5-dipivaloxymethylphosphono)furanyl)purine]",oral bioavailability,[1],5.3%
